Assays:
Assay in all cases: relative viability (nuclei count vs DMSO), 5 days (fraction); higher = more cells survive
[1] = compound: Cn1cc(-c2cnc3ccc4ccc(CS(=O)(=O)NCc5ccccn5)cc4c(=O)c3c2)cn1 [MK-8033] + CC(=O)Nc1cccc(-n2c(=O)n(C3CC3)c(=O)c3c(Nc4ccc(I)cc4F)n(C)c(=O)c(C)c32)c1 [Trametinib] (partner 0.02 µM)
Procedure, shortened: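 After 5 days of treatment, lung cancer cells in 1536-well plates were fixed and stained in a single step (final 0.05% Triton X-100, 1% formaldehyde, 1 ug/ml Hoechst) and their nuclei counted on 4× images. Treatment had been applied by pin tool the day after seeding as one drug alone or as a fixed anchor-drug dose with five library-drug doses (not always all listed) in √10 steps. Relative viability is the nuclei count of treated wells divided by that of vehicle wells, and values are medians of duplicate plates.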

[2] = compound: CCc1c2c(nc3ccc(OC(=O)N4CCC(N5CCCCC5)CC4)cc13)-c1cc3c(c(=O)n1C2)COC(=O)[C@]3(O)CC [Irinotecan]
Procedure, shortened: (§1)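 On vehicle-anchored 1536-well plates, lung cancer cell lines held overnight at 37 °C were pinned with five library-drug doses (not always all listed) spaced by √10. With no medium change over 5 days, they were then fixed, permeabilised and Hoechst-stained in one step and imaged at 4×. MetaXpress counted nuclei, and viability is the median across plates of treated-well over vehicle-well nuclei. Acceptance needed control CV below 25% and at least one doubling.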

[3] = compound: Cn1cc(-c2cnc3ccc4ccc(CS(=O)(=O)NCc5ccccn5)cc4c(=O)c3c2)cn1 [MK-8033]
Procedure, shortened: as §1

[4] = compound: CC[C@@H](C)CNCC(=O)N1CCC2=C([C@@H]1COC3=CC=CC(=C3)C)C=CS2 [RU-SKI 43]
Procedure, shortened: as §1

Cell Line: UMC-11
- relative viability ([1]; first compound 0.02 µM): 0.714
- relative viability ([1]; first compound 0.06325 µM): 0.457
- relative viability ([1]; first compound 0.2 µM): 0.604
- relative viability ([1]; first compound 0.6325 µM): 0.643
- relative viability ([1]; first compound 2 µM): 0.642
- relative viability ([2]; 0.6325 µM): 0.677
- relative viability ([2]; 2 µM): 0.675
- relative viability ([2]; 6.325 µM): 0.401
- relative viability ([2]; 20 µM): 0.264
- relative viability ([3]; 0.02 µM): 0.962
- relative viability ([3]; 0.06325 µM): 0.837
- relative viability ([3]; 0.2 µM): 0.916
- relative viability ([3]; 0.6325 µM): 1
- relative viability ([3]; 2 µM): 0.982
- relative viability ([4]; 0.1 µM): 1.07
- relative viability ([4]; 0.3162 µM): 1.11
- relative viability ([4]; 1 µM): 1.08
- relative viability ([4]; 3.162 µM): 1.07
- relative viability ([4]; 10 µM): 0.843

Source: the supplement of paper PMC10307832
